Assay results: US7067486B2, “Acetylcholinesterase-derived peptides and uses thereof” (priority 1999, dated 2006)

Tests used:
[1] = tested on: CD34^+ cells; experiment: BrdU incorporation into CD34+ cells (cell proliferation); assay type: cell-based, human; conditions: peptide 2 nM, cord blood CD34+ cells
Description: Cell Source: UCB was collected, following informed consent of the parents and with the approval of the Sourasky Medical Center Ethics Committee, as previously described [Grisaru et al. (1999a) Am. J. Obstet. Gynecol, 180, 1240–1243]. Following 1:1 (v/v) dilution in Iscove's modified Dulbecco medium (IMDM, Beit Haemek, Israel), mononuclear cells were separated using 3% gelatin (Difco, Detroit, Mich.) and Ficoll-Hypaque gradients (<1.077 g/ml; Pharmacia, Uppsala, Sweden) [Pick et al. (1998) Br. J. Haematol. 103, 639–50]. CD34^+ cells were enriched using CD34 immunoglobulin-coated magnetic beads (CD34 progenitor cell selection system, Dynal, Norway).CD34^+ cells analysis was performed by flow cytometry (Becton Dickinson Immunocytochemistry System Inc., San Jose, Calif.), using CD34-PE (Becton Dickinson Immunocytometry System, Inc.) and CD45-FITC (Dako, Glostrup, Denmark) monoclonal antibodies. […] Liquid Cultures: UCB CD34^+ cells were set for liquid cultures at a concentration of 10^5/mL in IMDM, containing 10% autologous plasma, 2 mM L-glutamine (Sigma Chemical Co., St Louis, Mo.), penicillin ([…]), streptomycin ([…]), amphotericin B (2×10^−5 M) (Sigma Chemical Co.), and heparin (20 IU/mL, Gibco, Grand Island, N.Y.), all in a fully humidified atmosphere at 37° C. and 5% CO2. The following elements were added where noted: • 1. Hematopoietic growth factors: Interleukin 3 (IL3, 5 ng/mL, Immunex, Seattle, Wash.), interleukin 6 (IL6, 50 ng/mL, R&D Systems, Minneapolis, Minn.), TPO (1 ng/mL, R&D Systems), stem cell factor (SCF, 10 ng/mL, R&D Systems), FLT-3 ligand (FLT3, 50 ng/mL, R&D Systems), granulocyte-macrophage colony stimulating factor (GM-CSF, 50 ng/mL, Biogenesis Ltd, Bournemouth, UK) and combinations of the above, for 24 hr to 28 days (supplemented every 4 days). • 2. […] AChE C-terminal peptides: The following C-terminal peptides of the AChE synaptic (ASP, also denoted SEQ ID: No. 2) and readthrough (ARP, also denoted SEQ ID: No. 1) isoforms were synthesized using a 433A peptide synthesizer (PE Applied Biosystems, Inc., Norwalk, Conn.). • ASP: 1-[…]-40, also denoted as SEQ ID: No. 2. • ARP: 1-[…]-26, also denoted as SEQ ID: No. 1.
[…] Twenty-eight day liquid cultures were sampled every 6–8 days for viable cell counting (using trypan blue dye exclusion), cell phenotyping (CD34^+, CD33^+ and CD41^+ quantification using flow cytometry, with CD34-PE, CD33-FITC (Immunotech/Coulter, Hialeah, Fla.), CD41-FITC (Immunoquality Products, Groningen, Netherlands) and CD45-FITC monoclonal antibodies), and growth of progenitor colony (granulocyte-macrophage and megakaryocytic), using previously described techniques (Pick et al. (1998) id ibid.). […]

[2] = tested on: CD34^+ cells; experiment: Viable cell expansion in CD34+ liquid cultures (trypan blue exclusion); assay type: cell-based, human
Description: Cell Source: UCB was collected, following informed consent of the parents and with the approval of the Sourasky Medical Center Ethics Committee, as previously described [Grisaru et al. (1999a) Am. J. Obstet. Gynecol, 180, 1240–1243]. Following 1:1 (v/v) dilution in Iscove's modified Dulbecco medium (IMDM, Beit Haemek, Israel), mononuclear cells were separated using 3% gelatin (Difco, Detroit, Mich.) and Ficoll-Hypaque gradients (<1.077 g/ml; Pharmacia, Uppsala, Sweden) [Pick et al. (1998) Br. J. Haematol. 103, 639–50]. CD34^+ cells were enriched using CD34 immunoglobulin-coated magnetic beads (CD34 progenitor cell selection system, Dynal, Norway).CD34^+ cells analysis was performed by flow cytometry (Becton Dickinson Immunocytochemistry System Inc., San Jose, Calif.), using CD34-PE (Becton Dickinson Immunocytometry System, Inc.) and CD45-FITC (Dako, Glostrup, Denmark) monoclonal antibodies. […] Liquid Cultures: UCB CD34^+ cells were set for liquid cultures at a concentration of 10^5/mL in IMDM, containing 10% autologous plasma, 2 mM L-glutamine (Sigma Chemical Co., St Louis, Mo.), penicillin ([…]), streptomycin ([…]), amphotericin B (2×10^−5 M) (Sigma Chemical Co.), and heparin (20 IU/mL, Gibco, Grand Island, N.Y.), all in a fully humidified atmosphere at 37° C. and 5% CO2. The following elements were added where noted: • 1. Hematopoietic growth factors: Interleukin 3 (IL3, 5 ng/mL, Immunex, Seattle, Wash.), interleukin 6 (IL6, 50 ng/mL, R&D Systems, Minneapolis, Minn.), TPO (1 ng/mL, R&D Systems), stem cell factor (SCF, 10 ng/mL, R&D Systems), FLT-3 ligand (FLT3, 50 ng/mL, R&D Systems), granulocyte-macrophage colony stimulating factor (GM-CSF, 50 ng/mL, Biogenesis Ltd, Bournemouth, UK) and combinations of the above, for 24 hr to 28 days (supplemented every 4 days). • 2. Endothlial Growth factors: Epidermal growth factor (EGF 10 ng/ml, Sigma Chemical Co.), basic Fibroblast growth factor (bFGF 20 ng/ml, Sigma Chemical Co.) incubated in a serum free medium (SFM) for 48 hr. • 3. […] AChE C-terminal peptides: The following C-terminal peptides of the AChE synaptic (ASP, also denoted SEQ ID: No. 2) and readthrough (ARP, also denoted SEQ ID: No. 1) isoforms were synthesized using a 433A peptide synthesizer (PE Applied Biosystems, Inc., Norwalk, Conn.). • ASP: 1-[…]-40, also denoted as SEQ ID: No. 2. • ARP: 1-[…]-26, also denoted as SEQ ID: No. 1. […]

“ASP (DTLDEAERQWKAEFHRWSSYMVHWKNQFDHYSKQDRCSDL)” gave a BrdU incorporation values ([1]; 16 hrs post-plating) of 0.095 ± 0.004, a BrdU incorporation values ([1]; 24 hrs post-plating) of 0.182 ± 0.018 and a BrdU incorporation values ([1]; 36 hrs post-plating) of 0.260 ± 0.022. The Total viable cells ([2]; day 14, seeded at 50,000 cells/well, ARP 2 nM, cortisol 1.2 μM, ASP 2 nM, SCF 50 ng/ml, AS1 20 pM, PBAN 2 nM) was 100.0 cells per culture × 10^−3 and the “promotion of cell expansion compared with ARP” value ([2]; similar doses, alone or with cytokines, 2 weeks) was “less effective than ARP”.
